Source: patent US12433908B2, “Use of nicotinamide riboside, nicotinic acid riboside, and nicotinamide mononucleotide, reduced nicotinyl compounds, and nicotinoyl compound derivatives in infant formula for healthy development” (ChromaDex, Inc., priority 2016, dated 2025)

Columns and labels:
[1] = Blood chemistry analysis of piglets given NR solution; type: in vivo, piglets (Yorkshire/Hampshire crossbred)
Text: Sixteen (n=16) Yorkshire/Hampshire crossbred piglets were obtained from the University of California, Davis Swine Teaching and Research Center and received on lactation day (“LD”) 14. Prior to arrive, the piglets were processed by the suppler between 1-3 days of age by administration of iron and an antibiotic ([…] for swine) as is common practice at the University of California, Davis Swine Facility. It is not common practice at the University of California, Davis Swine Facility to give a second dose of iron and antibiotics unless it becomes necessary. The piglets were from two litters (litters 15 and 17), weaned at 17 days of age, and randomly placed into one of two groups balanced for litter, sex, and weight. The animals were not acclimated to the facility at arrival and were subsequently acclimated to the test diet administration system. The piglets were weaned into a temperature-controlled room (approximately 27-29° C.) that contained 10 adjacent pens. The piglets were group-housed in the nursery room at the Swine Facility, which is an enclosed room with access restricted to trained personnel. The two groups were separated by one pen containing piglets of similar age. Each morning enough nicotinamide riboside (NR, I) in water solution was prepared for that day's dose administration according to the dose preparation protocol. At least 5 mL of prepared dose was reserved and immediately frozen after preparation each day for analysis of nicotinamide riboside (NR, I) for the purpose of confirming stability of the dose material. The doses were stored at refrigeration temperature while not in use. Nicotinamide riboside (NR, I) was dosed once per day in the morning and at the same time each day. Piglets in the control group received the same volume of plain water and were dosed on the same schedule. Starting on Day 1, animals in the nicotinamide riboside (NR, I) group were dosed once daily (in the morning) with 277 mg nicotinamide riboside (NR, I) per pig resuspended in water for seven days. After one week, animals were dosed once daily with 342 mg nicotinamide riboside (NR, I) per pig delivered in 2.5 mL for seven days. For Days 1 and 2, the nicotinamide riboside (NR, I) solution was prepared by resuspending 2770 mg nicotinamide riboside (NR, I) in 50 mL water, and 5 mL of this solution was delivered to each pig by squirting it into the back of the mouth using a 10 mL syringe with a piece of tubing attached to the end. To reduce the volume to more efficiently deliver the nicotinamide riboside (NR, I) solution, the 2770 mg was resuspended in 25 mL water and 2.5 mL of the solution was squirted into the back of the mouth of each pig using a 3 mL syringe for Days 3-7. For Days 8-14, 3420 mg nicotinamide riboside (NR, I) was resuspended in 25 mL water and 2.5 mL of this solution was delivered to each pig. Each day prior to dosing, 2.5 mL of the nicotinamide riboside (NR, I) (5 mL on Days 1 and 2) were placed into a separate tube and frozen. Blood was collected from each pig via jugular venipuncture on Days 1, 8, and 14. In each instance, blood was collected prior to dosing with nicotinamide riboside (NR, I). On Day 1, the sow was removed from the piglets for approximately three hours prior to sample collection. On Days 8 and 14, feed was removed from the animals' pens 12 hours prior to sample collection. Blood was collected into purple-top vacutainers for CBC analysis and into red-top vacutainers for blood chemistry analysis. CBC analysis was performed at IDEXX Laboratories in West Sacramento, California using the Sysmex XT-iV Vet Hematology Autoanalyzer (Sysmex America Inc., Lincolnshire, Illinois). Red-top tubes were spun to collect serum and the serum frozen. Frozen aliquots (500 μL) were submitted to the University of California, Davis Veterinary medicine Teaching Hospital Clinical Diagnostic Laboratory for Blood Chemistry Analysis using the Cobas 6000 C501 Clinical Chemistry Analyzer (Roche Diagnostics, Indianapolis, IN). […]

[2] = mice on a high-fat diet supplemented with NR; cited from earlier work
[3] = Wk 1, 277 mg/pig once daily oral
[4] = Wk 2, 342 mg/pig once daily oral Days 8-14

- Albumin ([1]; Baseline, before dosing): 3.74 g/dL
- Alkaline Phosphatase ([1]; Baseline, before dosing): 720 U/L
- Anion Gap ([1]; Baseline, before dosing): 26.7 mmol/L
- BUN ([1]; Baseline, before dosing): 5.8 mg/dL
- Bicarbonate ([1]; Baseline, before dosing): 19.4 mmol/L
- Bilirubin Total ([1]; Baseline, before dosing): 0.40 mg/dL
- Calcium ([1]; Baseline, before dosing): 10.6 mg/dL
- Chloride ([1]; Baseline, before dosing): 100.3 mmol/L
- Creatine Kinase ([1]; Baseline, before dosing): 1.30 ×10^3 U/L
- Creatinine ([1]; Baseline, before dosing): 0.94 mg/dL
- GGT ([1]; Baseline, before dosing): 43.8 U/L
- Globulin ([1]; Baseline, before dosing): 0.86 g/dL
- Glucose ([1]; Baseline, before dosing): 117.8 mg/dL
- Phosphorus ([1]; Baseline, before dosing): 9.9 mg/dL
- Potassium ([1]; Baseline, before dosing): 4.50 mmol/L
- Sodium ([1]; Baseline, before dosing): 141.9 mmol/L
- Total Protein ([1]; Baseline, before dosing): 4.59 g/dL
- Albumin [1, 3]: 3.43 g/dL
- Alkaline Phosphatase [1, 3]: 326 U/L
- Anion Gap [1, 3]: 21.1 mmol/L
- BUN [1, 3]: 10.9 mg/dL
- Bicarbonate [1, 3]: 20.1 mmol/L
- Bilirubin Total [1, 3]: 0.40 mg/dL
- Calcium [1, 3]: 9.0 mg/dL
- Chloride [1, 3]: 96.1 mmol/L
- Creatine Kinase [1, 3]: 0.88 ×10^3 U/L
- Creatinine [1, 3]: 1.07 mg/dL
- GGT [1, 3]: 41.4 U/L
- Globulin [1, 3]: 0.97 g/dL
- Glucose [1, 3]: 99.7 mg/dL
- Phosphorus [1, 3]: 6.5 mg/dL
- Potassium [1, 3]: 4.27 mmol/L
- Sodium [1, 3]: 133.1 mmol/L
- Total Protein [1, 3]: 4.40 g/dL
- Albumin [1, 4]: 3.29 g/dL
- Alkaline Phosphatase [1, 4]: 285 U/L
- Anion Gap [1, 4]: 20.4 mmol/L
- BUN [1, 4]: 8.6 mg/dL
- Bicarbonate [1, 4]: 23.7 mmol/L
- Bilirubin Total [1, 4]: 0.27 mg/dL
- Calcium [1, 4]: 9.8 mg/dL
- Chloride [1, 4]: 97.1 mmol/L
- Creatine Kinase [1, 4]: 0.55 ×10^3 U/L
- Creatinine [1, 4]: 0.80 mg/dL
- GGT [1, 4]: 42.6 U/L
- Globulin [1, 4]: 1.20 g/dL
- Glucose [1, 4]: 77.1 mg/dL
- Phosphorus [1, 4]: 7.5 mg/dL
- Potassium [1, 4]: 4.10 mmol/L
- Sodium [1, 4]: 137.3 mmol/L
- Total Protein [1, 4]: 4.49 g/dL
SMILES: NC(=O)c1ccc[n+]([C@@H]2O[C@H](CO)[C@@H](O)[C@H]2O)c1 [NR, Nicotinamide riboside]
- AST ([1]; Baseline, before dosing): 45.5 U/L
- AST [1, 3]: 50.6 U/L
- AST [1, 4]: 36.7 U/L
- less weight gained on a high-fat diet [2]: 40%
